The values below come from patent US10654833B2, “ASK1 isoindolin-1-one inhibitors and methods of use thereof” (Hepatikos Therapeutics, LLC, priority 2018, dated 2020).

Series [1] concerns the target recombinant human ASK1 protein (Homo sapiens (Human), UniProt Q99683). Briefly: ASK1 kinase activity inhibition assay (radiometric 33P incorporation into MBP). Type of series: biochemical. The following applies: 20 μM MBP, 10 μM 33P-ATP. Summed up:
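Compound (1% DMSO final) was preincubated for 20 min at room temperature with recombinant human ASK1 and 20 μM MBP in HEPES pH 7.5 buffer. Reactions started with 10 μM 33P-ATP and ran for 2 h at room temperature. 33P incorporation into MBP was measured by P81 filter binding.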

The target in series [2] is human OATP1B1 transporter (Homo sapiens (Human), UniProt Q9Y6L6). Briefly: Transporter mediated cellular uptake, OATP1B1-expressing HEK293. Format: in vitro ADME. Conditions: HEK293 stably expressing human OATP1B1, 37° C., 0.5 minutes. The procedure:
(§1) Transporter Mediated Cellular Uptake
(§2) To determine transporter mediated cellular uptake of compounds, HEK293 stably expressing either human OATP1B1 or human OATP1B3 transporter, or mock transfected cells were cultured at 37° C. in an atmosphere of 95:5 air:CO2 DMEM/F12 medium containing 10% FBS, 100 unit/mL penicillin-G and 100 μg/mL streptomycin. Transporter expressing cell culture medium also contained 500 μg/mL G418 disulfate solution. Cells were plated onto 24-well poly-D-lysine coated culture plates at the density 5×10^5 cells/well 24 hours prior to uptake assay. Compound stock solutions were made at 1000× final concentration in 100% DMSO. Final compound solutions were prepared by diluting stock solutions into HBSS buffer (pH 7.4) On the day of the uptake assay cell culture media was removed and cells were washed twice with 300 μL of HBSS buffer (pH 7.4). Cellular uptake of compound into the cells was measured by adding 300 μL of final compound solutions in HBSS and incubating them at 37° C. for 0.5 minutes (OATP1B1) or 5 minutes (OATP1B3). Reactions were quenched by removing the buffer containing the TA and the cells were washed twice with 300 μL of HBSS buffer. Cells were lysed by adding 300 μL of MeOH:H2O (2:1) and incubated for 20 minutes at 4° C. The amount of compound in the cell lysate was determined by LC-MS/MS. The amount of protein in each well was quantified using the BCA kit for protein determination and used to normalize compound uptake (Sigma-Aldrich, St Louis, Mo., USA). • Uptake of the probe substrate in control cells provided background activity values for all data points. • Incubation with probe substrate (solvent only) provided 100% activity values. • A reference positive control was used for each transporter

For series [3], the target named is human OATP1B3 transporter (Homo sapiens (Human), UniProt Q9NPD5). Briefly: Transporter mediated cellular uptake, OATP1B3-expressing HEK293. Type of series: in vitro ADME. Conditions: HEK293 stably expressing human OATP1B3, 37° C., 5 minutes. The procedure: as §1, §2
The target in another series is ASK1 kinase active site (Homo sapiens (Human), UniProt Q99683). Briefly: ASK1 kinase active site binding assay (KINOMEscan). Conditions: 11-point 3-fold dilution series. The procedure: ASK1 Kinase Active Site Binding Assay
Compound binding to the ASK1 kinase active site was determined using the KINOMEscan Assay platform (DiscoverX, San Diego, Calif.). Briefly, ASK1-tagged T7 phage strains were prepared in an E. coli host derived from the BL21 strain. E. coli were grown to log-phase and infected with T7 phage and incubated with shaking at 32° C. until lysis. The lysates were centrifuged and filtered to remove cell debris. The remaining kinases were produced in HEK-293 cells and subsequently tagged with DNA for qPCR detection. Streptavidin-coated magnetic beads were treated with biotinylated small molecule ligands for 30 minutes at room temperature to generate affinity resins for kinase assays. The liganded beads were blocked with excess biotin and washed with blocking buffer (SeaBlock (Pierce), 1% BSA, 0.05% Tween 20, 1 mM DTT) to remove unbound ligand and to reduce nonspecific binding. Binding reactions were assembled by combining kinases, liganded affinity beads, and test compounds in 1× binding buffer (20% SeaBlock, 0.17×PBS, 0.05% Tween 20, 6 mM DTT). Test compounds were prepared as 111× stocks in 100% DMSO. Kds were determined using an 11-point 3-fold compound dilution series with three DMSO control points. […] The kinase concentration in the eluates was measured by qPCR. Binding constants (Kds) were calculated with a standard dose-response curve using the Hill equation. […]

Chain of human OATP1B3 transporter (Q9NPD5 whole entry): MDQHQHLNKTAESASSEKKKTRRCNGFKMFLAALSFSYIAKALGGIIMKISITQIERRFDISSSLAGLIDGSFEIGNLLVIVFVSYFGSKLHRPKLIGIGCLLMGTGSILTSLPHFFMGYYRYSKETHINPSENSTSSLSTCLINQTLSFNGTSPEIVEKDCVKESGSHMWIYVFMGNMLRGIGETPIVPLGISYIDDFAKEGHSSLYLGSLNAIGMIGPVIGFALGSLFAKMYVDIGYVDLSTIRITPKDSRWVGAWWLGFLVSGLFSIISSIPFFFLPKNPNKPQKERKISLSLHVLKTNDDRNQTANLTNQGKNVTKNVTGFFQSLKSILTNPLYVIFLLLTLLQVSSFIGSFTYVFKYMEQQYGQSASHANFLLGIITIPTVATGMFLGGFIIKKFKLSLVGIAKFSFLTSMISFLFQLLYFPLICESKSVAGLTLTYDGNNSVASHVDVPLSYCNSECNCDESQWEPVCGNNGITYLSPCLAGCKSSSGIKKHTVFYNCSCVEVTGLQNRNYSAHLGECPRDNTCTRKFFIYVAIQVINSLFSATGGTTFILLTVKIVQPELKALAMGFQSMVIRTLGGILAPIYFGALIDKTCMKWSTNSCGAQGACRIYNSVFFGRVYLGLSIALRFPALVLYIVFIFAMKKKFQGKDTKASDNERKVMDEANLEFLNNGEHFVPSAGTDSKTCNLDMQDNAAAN
Chain of human OATP1B1 transporter (Q9Y6L6 whole entry): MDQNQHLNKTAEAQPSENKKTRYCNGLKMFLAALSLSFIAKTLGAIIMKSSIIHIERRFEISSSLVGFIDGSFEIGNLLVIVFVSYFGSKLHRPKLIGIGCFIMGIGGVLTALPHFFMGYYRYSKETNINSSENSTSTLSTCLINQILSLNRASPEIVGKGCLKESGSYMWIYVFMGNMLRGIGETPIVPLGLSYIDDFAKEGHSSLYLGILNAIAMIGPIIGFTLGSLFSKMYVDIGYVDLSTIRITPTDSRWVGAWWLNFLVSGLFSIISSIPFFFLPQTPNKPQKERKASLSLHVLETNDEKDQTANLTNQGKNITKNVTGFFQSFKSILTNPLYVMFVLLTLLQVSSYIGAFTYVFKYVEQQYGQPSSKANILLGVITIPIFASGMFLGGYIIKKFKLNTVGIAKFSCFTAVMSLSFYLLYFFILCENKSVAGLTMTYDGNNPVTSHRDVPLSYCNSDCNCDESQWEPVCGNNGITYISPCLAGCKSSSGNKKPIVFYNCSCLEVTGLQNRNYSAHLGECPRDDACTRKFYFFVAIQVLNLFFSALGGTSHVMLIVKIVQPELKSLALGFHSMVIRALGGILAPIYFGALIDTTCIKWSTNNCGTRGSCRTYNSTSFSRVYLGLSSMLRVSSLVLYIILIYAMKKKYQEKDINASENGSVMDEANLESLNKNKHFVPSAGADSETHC
Chain of recombinant human ASK1 protein (Q99683 whole entry): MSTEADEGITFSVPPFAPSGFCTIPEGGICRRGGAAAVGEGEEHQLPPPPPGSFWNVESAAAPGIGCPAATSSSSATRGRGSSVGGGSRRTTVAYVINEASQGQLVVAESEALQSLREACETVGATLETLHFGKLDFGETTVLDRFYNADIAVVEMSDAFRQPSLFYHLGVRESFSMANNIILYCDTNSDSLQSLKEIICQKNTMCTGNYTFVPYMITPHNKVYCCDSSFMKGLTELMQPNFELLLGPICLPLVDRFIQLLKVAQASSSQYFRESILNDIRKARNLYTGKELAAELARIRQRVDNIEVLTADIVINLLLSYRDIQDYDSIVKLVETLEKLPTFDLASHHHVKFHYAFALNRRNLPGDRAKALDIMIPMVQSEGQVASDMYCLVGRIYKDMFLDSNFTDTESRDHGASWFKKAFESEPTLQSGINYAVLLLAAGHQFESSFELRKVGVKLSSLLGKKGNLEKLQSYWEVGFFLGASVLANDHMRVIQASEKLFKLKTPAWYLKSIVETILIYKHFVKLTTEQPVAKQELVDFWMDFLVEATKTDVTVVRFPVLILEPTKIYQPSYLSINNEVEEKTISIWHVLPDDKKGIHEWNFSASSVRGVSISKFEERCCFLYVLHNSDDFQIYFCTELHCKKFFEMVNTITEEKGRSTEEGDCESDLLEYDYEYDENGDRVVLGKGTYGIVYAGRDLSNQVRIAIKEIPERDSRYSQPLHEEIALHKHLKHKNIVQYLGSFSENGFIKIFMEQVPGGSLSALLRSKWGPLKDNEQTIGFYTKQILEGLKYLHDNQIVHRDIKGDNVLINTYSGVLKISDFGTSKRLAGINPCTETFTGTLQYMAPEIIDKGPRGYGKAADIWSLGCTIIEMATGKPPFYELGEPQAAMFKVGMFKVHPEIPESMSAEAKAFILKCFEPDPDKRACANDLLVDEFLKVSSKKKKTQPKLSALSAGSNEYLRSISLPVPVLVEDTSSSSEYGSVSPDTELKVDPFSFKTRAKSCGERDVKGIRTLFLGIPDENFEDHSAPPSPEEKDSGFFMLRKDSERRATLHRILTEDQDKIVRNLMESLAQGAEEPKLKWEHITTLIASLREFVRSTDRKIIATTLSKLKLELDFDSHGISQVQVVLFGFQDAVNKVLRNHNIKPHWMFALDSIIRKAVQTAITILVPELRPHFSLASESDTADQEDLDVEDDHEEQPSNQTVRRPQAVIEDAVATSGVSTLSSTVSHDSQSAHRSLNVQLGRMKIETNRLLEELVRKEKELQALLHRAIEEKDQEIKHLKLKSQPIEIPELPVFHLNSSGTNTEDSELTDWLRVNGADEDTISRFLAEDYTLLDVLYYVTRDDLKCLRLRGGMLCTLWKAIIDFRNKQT
Chain of ASK1 kinase active site (Q99683 whole entry): as above

With `CC(C)n1cnnc1-c1cccc(N2Cc3ccc(-c4cccc(C(C)(C)C(=O)O)c4)cc3C2=O)n1` [Compound 102, 2-(3-(2-(6-(4-Isopropyl-4H-1,2,4-triazol-3-yl)pyridin-2-yl)-3-oxoisoindolin-5-yl)phenyl)-2-methylpropanoic Acid], the IC50 (commonly the concentration needed to halve the response being measured) in series [1] (Table 3) was 0.7 nM. Further, the “OATP1B1 Uptake (Percent of no transporter control cell)” value in series [2] is 221%. Further, the “OATP1B3 Uptake (Percent of no transporter control cell)” value in series [3] came out at 632%.

For `C[C@]12CC[C@@H]3c4ccc(OS(=O)(=O)O)cc4CC[C@H]3[C@@H]1CCC2=O` [Estrone 3-sulphate, reference compound], in series [2], the “OATP1B1 Uptake (Percent of no transporter control cell)” value is reported as 685%.

With `CC(C)n1cnnc1-c1cccc(N2Cc3ccc(-c4cccc(C(=O)O)c4)cc3C2=O)n1` [Compound 1, 3-(2-(6-(4-isopropyl-4H-1,2,4-triazol-3-yl)pyridin-2-yl)-3-oxoisoindolin-5-yl)benzoic acid], at ASK1 kinase active site, the Kd (in general, the equilibrium constant for the complex coming apart) amounted to 0.75 nM. The IC50 in series [1] (Table 2) and in series [1] (Table 3) was 5.2 nM each time. Besides, in series [2], the “OATP1B1 Uptake (Percent of no transporter control cell)” value amounted to 753%. The “OATP1B3 Uptake (Percent of no transporter control cell)” value in series [3] was found to be 399%.

In the case of `C[C@]12CC[C@@H]3c4ccc(O)cc4CC[C@H]3[C@@H]1CC[C@@H]2O` [Estradiol, reference compound], in series [3], the “OATP1B3 Uptake (Percent of no transporter control cell)” value is on record as 490%.

On to `CC(C)n1cnnc1-c1cccc(N2Cc3ccc(-c4ccc(C(C)(C)C(=O)O)cc4)cc3C2=O)n1` [Compound 39, 2-(4-(2-(6-(4-isopropyl-4H-1,2,4-triazol-3-yl)pyridin-2-yl)-3-oxoisoindolin-5-yl)phenyl)-2-methylpropanoic acid], for which the affinity on ASK1 kinase active site, expressed as Kd, was 0.86 nM. Besides, the IC50 in series [1] (Table 2) came out at 3.3 nM. Besides, the “OATP1B1 Uptake (Percent of no transporter control cell)” value in series [2] amounted to 175%. In series [3], the “OATP1B3 Uptake (Percent of no transporter control cell)” value stood at 316%.

`CC(C)n1cnnc1-c1cccc(N2Cc3ccc(-c4cc(-c5nn[nH]n5)ccc4F)cc3C2=O)n1` [Compound 111, 6-(2-Fluoro-5-(2H-tetrazol-5-yl)phenyl)-2-(6-(4-isopropyl-4H-1,2,4-triazol-3-yl)pyridin-2-yl)isoindolin-1-one]: the IC50 in series [1] (Table 3) came to 6.4 nM.

For `CC(C)n1cnnc1-c1cccc(N2Cc3ccc(-c4ccc(-c5nnn[nH]5)cc4)cc3C2=O)n1` [Compound 91, 6-(4-(2H-Tetrazol-5-yl)phenyl)-2-(6-(4-isopropyl-4H-1,2,4-triazol-3-yl)pyridin-2-yl)isoindolin-1-one], the IC50 in series [1] (Table 3) came to 7.9 nM.

Regarding `O=C(O)c1ccc(F)c(-c2ccc3c(c2)C(=O)N(c2cccc(-c4nncn4C4CC4)n2)C3)c1` [Compound 93, 3-(2-(6-(4-Cyclopropyl-4H-1,2,4-triazol-3-yl)pyridin-2-yl)-3-oxoisoindolin-5-yl)-4-fluorobenzoic Acid], the IC50 in series [1] (Table 3) is 12.4 nM.

As to `CC(C)n1cnnc1-c1cccc(N2Cc3ccc(-c4ccc(C5(C(=O)O)CC5)cc4)cc3C2=O)n1` [Compound 86, 1-(4-(2-(6-(4-Isopropyl-4H-1,2,4-triazol-3-yl)pyridin-2-yl)-3-oxoisoindolin-5-yl)phenyl)cyclopropane-1-carboxylic Acid], in series [1] (Table 3), the IC50 came out at 1.83 nM.
